Molecular target: T1, HCV NS5B genotype 1b (Hepatitis C virus genotype 1b, UniProt Q9WMX2)
T1 construct: The protein was expressed with a 21 amino acid C-terminal deletion to remove transmembrane domain; expressed in transfected cells; host or cells: Huh-7
Assay: 3D-SCREEN assay (NS5B 3D-Screen platform, luciferase reporter gene)
Format: cell-based
Conditions: EC50_3DS_NS5B, Table 1, 3D-SCREEN assay results; Huh-7 cells, 24 hours with compound, firefly luciferase reporter
Source text: cDNA encoding HCV NS5B genotype 1b, was cloned in frame with Gal4-DNA Binding Domain. The protein was expressed with a 21 amino acid C-terminal deletion to remove transmembrane domain. Expression of NS5BΔ21/Gal4 DBD fusion protein was under control of SV40 early promoter. 3D-Sensor peptide was cloned in frame with VP16 activation domain. Expression of 3D-Sensor/VP16 AD fusion protein was under control of CMV promoter. Expression of the firefly luciferase reporter gene was inducible by the [Target protein/conformation sensitive peptide/VP16AD] complex.
It is a single-target, cell based assay. Briefly, expression of a reporter gene depends on the interaction of a short peptide, thereafter named 3D-Sensor, and native conformation of the target protein. Whenever the conformation of the target protein is modified, interaction between 3D-sensor and target protein is disrupted and reporter gene is not expressed anymore. Conformation modifiers are identified by loss of expression of reporter gene. NS5B 3D-Screen platform was generated in Huh-7 cell lines by transient transfection of three expression vectors encoding respectively
(i) HCV NS5BΔ21/Gal4-DBD fusion protein
(ii) the 3D-sensor peptide I4/VP16 fusion protein
(iii) the firefly luciferase reporter gene
Huh-7 cells were dissociated the day before transfection and seeded in T175 flasks at a density of 10^7 cells in 30 ml culture medium. Equimolar ratios of vectors were transfected in cell according to optimized jetPEI transfection protocol (PolyPlus Transfection, Illkirch, France) and 10 μg total DNA/10^6 cells. Transfection was performed for 2 hours at 37° C. and 5% CO2 in a humidified atmosphere. After two hours cells were dissociated and seeded in 96 wells plates at a density of 25,000 cells per well and 90 μl culture medium. 10 μl of compounds to be tested were added 2 hours after seeding. Final concentration of DMSO was 1%. Cells were incubated in the presence of compounds for 24 hours after which expression of firefly luciferase reporter gene was quantified. Briefly, culture medium was removed and cells were lysed by addition of 100 μl of lysis buffer containing 125 mM Tris Phosphate ph 7.8, 10 mM EDTA, 5 mM DTT, 50% glycerol and 5% Triton. Plates were vortexed 10 min at 1300 rpm. Cell lysat was transferred in OpaqueWhite Assay 96 well Flat Bottom plates. 100 μl of luciferin solution 1× were added to each well. Luciferin solution contained 40 mM Tris Phosphate ph 7.8, 0.2 mM EDTA, 67 mM DTT, 2.14 mM MgCl2, 5.4 mM MgSO4, 4.7×10^−4 M luciferin, 5.3×10^−4 M ATP and 2.7×10^−4 M Acetyl co enzyme A. Luminescence was immediately measured with Berthold Microlumat Plus LB 96V luminometer with an integration of 0.5 sec. Inhibition was calculated using the formula: % inhibition=(1−(read/average max))*100. Average max=signal in absence of compound

Compared with `CON=C(C1=C(O)C(=O)N(c2ccc(C)nn2)C1c1ccc(C(C)C)cc1)c1ccc(C)cc1` (mixture of isomers) [Example 53, 3-hydroxy-5-(4-isopropyl-phenyl)-4-(methoxyimino-p-tolyl-methyl)-1-(6-methyl-pyridazin-3-yl)-1,5-dihydro-pyrrol-2-one], `Cc1ccc(N2C(=O)C(O)=C(C(=O)c3ccc(N(C)C)cc3)C2c2ccc(C(C)C)cc2)nn1` (centres unmarked) [Example 35, 4-(4-dimethylamino-benzoyl)-3-hydroxy-5-(4-isopropyl-phenyl)-1-(6-methyl-pyridazin-3-yl)-1,5-dihydro-pyrrol-2-one] is 1.7-fold lower in EC50: 5 µM for the first, 3 µM for the second.

First: Cc1ccc(C(=O)C2=C(O)C(=O)N(c3ccc(C#N)cn3)C2c2ccc(C(C)C)cc2)cc1 (centres unmarked) [Example 7, 6-[3-hydroxy-5-(4-isopropyl-phenyl)-4-(4-methyl-benzoyl)-2-oxo-2,5-dihydro-pyrrol-1-yl]-nicotinonitrile]
Second: Cc1ccc(N2C(=O)C(O)=C(C(=O)c3ccc(C(C)C)cc3)C2c2ccc(C(C)C)cc2)nc1 (centres unmarked) [Example 44, 3-hydroxy-4-(4-isopropyl-benzoyl)-5-(4-isopropyl-phenyl)-1-(5-methyl-pyridin-2-yl)-1,5-dihydro-pyrrol-2-one]
The EC50 of the first is 4.5-fold higher: 9 µM for the first, 2 µM for the second.

`Cc1ccc(C(=O)C2=C(O)C(=O)N(c3cccnn3)C2c2ccc(C(C)C)cc2)cc1` (centres unmarked) [Example 9, 3-hydroxy-5-(4-isopropyl-phenyl)-4-(4-methyl-benzoyl)-1-pyridazin-3-yl-1,5-dihydro-pyrrol-2-one] and `Cc1ccc(C(=O)C2=C(O)C(=O)N(c3ccc(C)nn3)C2c2cccc(C(C)C)c2)cc1` (centres unmarked) [Example 29, 3-hydroxy-5-(3-isopropyl-phenyl)-4-(4-methyl-benzoyl)-1-(6-methyl-pyridazin-3-yl)-1,5-dihydro-pyrrol-2-one] are within 1.5-fold of each other in EC50: 7 µM for the first, 6 µM for the second.

Going from `COc1ccc(C(=O)C2=C(O)C(=O)N(c3ccc(C)nn3)C2c2ccc(C(C)(C)C)cc2)cc1` (centres unmarked) [Example 10, 5-(4-tert-butyl-phenyl)-3-hydroxy-4-(4-methoxy-benzoyl)-1-(6-methyl-pyridazin-3-yl)-1,5-dihydro-pyrrol-2-one] to `Cc1ccc(N2C(=O)C(O)=C(C(=O)c3ccc(N(C)C)cc3)C2c2ccc(OC(F)(F)F)cc2)nn1` (centres unmarked) [Example 49, 4-(4-dimethylamino-benzoyl)-3-hydroxy-1-(6-methyl-pyridazin-3-yl)-5-(4-trifluoromethoxy-phenyl)-1,5-dihydro-pyrrol-2-one], the EC50 falls from 3 µM to 1 µM (3-fold).

`Cc1ccc(C(=O)C2=C(O)C(=O)N(c3ccc(C)nn3)C2c2ccc(-c3ccccc3)cc2)cc1` (centres unmarked) [Example 42, 5-biphenyl-4-yl-3-hydroxy-4-(4-methyl-benzoyl)-1-(6-methyl-pyridazin-3-yl)-1,5-dihydro-pyrrol-2-one] and `Cc1ccc(N2C(=O)C(O)=C(C(=O)c3ccc(C(C)C)cc3)C2c2ccc(-c3ccccc3)cc2)nn1` (centres unmarked) [Example 45, 5-biphenyl-4-yl-3-hydroxy-4-(4-isopropyl-benzoyl)-1-(6-methyl-pyridazin-3-yl)-1,5-dihydro-pyrrol-2-one] are the same in EC50: 4 µM for the first, 4 µM for the second.

Same assay, conditions: EC50_3DS_NS5B, Table 2, titled Replicon assay results

`Cc1ccc(N2C(=O)C(O)=C(C(=O)c3ccc(C(F)(F)F)cc3)C2c2ccc(C(F)(F)F)cc2)nn1` (centres unmarked) [Example 95, 3-hydroxy-1-(6-methyl-pyridazin-3-yl)-4-(4-trifluoromethyl-benzoyl)-5-(4-trifluoromethyl-phenyl)-1,5-dihydro-pyrrol-2-one] and `Cc1ccc(N2C(=O)C(O)=C(C(=O)c3ccc(C#N)cc3)C2c2ccc(OC(F)(F)F)cc2)nn1` (centres unmarked) [Example 176, 4-[4-hydroxy-1-(6-methyl-pyridazin-3-yl)-5-oxo-2-(4-trifluoromethoxy-phenyl)-2,5-dihydro-1H-pyrrole-3-carbonyl]-benzonitrile] cannot be ordered by EC50: under 10 µM for the first, under 10 µM for the second.

`COc1ccc(C(=O)C2=C(O)C(=O)N(c3ccc(C)nn3)C2c2ccc(OC(C)C)cc2)cc1` (centres unmarked) [Example 100, 3-hydroxy-5-(4-isopropoxy-phenyl)-4-(4-methoxy-benzoyl)-1-(6-methyl-pyridazin-3-yl)-1,5-dihydro-pyrrol-2-one] and `Cc1ccc(N2C(=O)C(O)=C(C(=O)c3ccc(OC(C)C)cc3)C2c2ccc(OC(C)C)cc2)nn1` (centres unmarked) [Example 109, 3-hydroxy-4-(4-isopropoxy-benzoyl)-5-(4-isopropoxy-phenyl)-1-(6-methyl-pyridazin-3-yl)-1,5-dihydro-pyrrol-2-one] cannot be ordered by EC50: under 10 µM for the first, under 10 µM for the second.

`Cc1ccc(N2C(=O)C(O)=C(C(=O)c3ccc(C(C)C)cc3)C2c2ccc(CC(C)C)cc2)nn1` (centres unmarked) [Example 136, 3-hydroxy-5-(4-isobutyl-phenyl)-4-(4-isopropyl-benzoyl)-1-(6-methyl-pyridazin-3-yl)-1,5-dihydro-pyrrol-2-one] and `Cc1ccc(N2C(=O)C(O)=C(C(=O)c3ccc(C(C)C)cc3)C2c2ccc(SC(C)C)cc2)nn1` (centres unmarked) [Example 173, 3-hydroxy-4-(4-isopropyl-benzoyl)-5-(4-isopropylsulfanyl-phenyl)-1-(6-methyl-pyridazin-3-yl)-1,5-dihydro-pyrrol-2-one] cannot be ordered by EC50: under 10 µM for the first, under 1 µM for the second.

`Cc1ccc(N2C(=O)C(O)=C(C(=O)c3ccc(C(C)C)cc3)C2c2ccc(Br)cc2)nn1` (centres unmarked) [Example 172, 5-(4-bromo-phenyl)-3-hydroxy-4-(4-isopropyl-benzoyl)-1-(6-methyl-pyridazin-3-yl)-1,5-dihydro-pyrrol-2-one] and `Cc1ccc(N2C(=O)C(O)=C(C(=O)c3ccc(C(C)C)cc3)C2c2ccc(Oc3cc(C)on3)cc2)nn1` (centres unmarked) [Example 185, 3-hydroxy-4-(4-isopropyl-benzoyl)-5-[4-(5-methyl-isoxazol-3-yloxy)-phenyl]-1-(6-methyl-pyridazin-3-yl)-1,5-dihydro-pyrrol-2-one] cannot be ordered by EC50: under 1 µM for the first, under 10 µM for the second.

`Cc1ccc(N2C(=O)C(O)=C(C(=O)c3ccc(N4CCCC4)cc3)C2c2ccc(OC(C)(F)F)cc2)nn1` (centres unmarked) [Example 183, 5-[4-(1,1-difluoro-ethoxy)-phenyl]-3-hydroxy-1-(6-methyl-pyridazin-3-yl)-4-(4-pyrrolidin-1-yl-benzoyl)-1,5-dihydro-pyrrol-2-one] and `Cc1ccc(N2C(=O)C(O)=C(C(=O)c3ccc(N4CCCC4)cc3)C2c2ccc(OC(F)(F)F)cc2)nn1` (centres unmarked) [Example 184, 3-hydroxy-1-(6-methyl-pyridazin-3-yl)-4-(4-pyrrolidin-1-yl-benzoyl)-5-(4-trifluoromethoxy-phenyl)-1,5-dihydro-pyrrol-2-one] cannot be ordered by EC50: under 10 µM for the first, under 10 µM for the second.

`Cc1ccc(N2C(=O)C(OC(=O)C(C)C)=C(C(=O)c3ccc(C(C)C)cc3)C2c2ccc(OC(F)(F)F)cc2)nn1` (centres unmarked) [Example 186, Isobutyric acid 4-(4-isopropyl-benzoyl)-1-(6-methyl-pyridazin-3-yl)-2-oxo-5-(4-trifluoromethoxy-phenyl)-2,5-dihydro-1H-pyrrol-3-yl ester] showed an EC50 of under 1 µM.

Same assay, conditions: Table 2, titled Replicon assay results; read-out: EC50_3DS_NS5B

With “5-[4-(1,1-difluoro-ethoxy)-phenyl]-3-hydroxy-4-(4-isopropyl-benzoyl)-1-(6-methyl-pyridazin-3-yl)-1,5-dihydro-pyrrol-2-one [Example 174]” the EC50 was under 10 µM.

Same assay, conditions: read-out: EC50_3DS_NS5B; Table 2, titled Replicon assay results

With `Cc1ccc(N2C(=O)C(O)=C(C(=O)c3ccc(OC(F)(F)F)cc3)C2c2ccc(C(C)C)cc2)cn1` (centres unmarked) [Example 97, 5-[3-hydroxy-5-(4-isopropyl-phenyl)-2-oxo-4-(4-trifluoromethoxy-benzoyl)-2,5-dihydro-pyrrol-1-yl]-2-methyl-pyridinium; chloride] the EC50 was under 10 µM.
